US20150197492A1, “NOVEL INDENO[1,2-c]QUINOLIN-11-ONE DERIVATIVES, PREPARATION METHOD AND APPLICATION THEREOF” (National Defense Medical Center, priority 2014, published 2015)

How the values were obtained:
Type in all cases: cell-based
SK-MEL-28 = test: cells
SK-MEL-2 = test: cells; conditions: Melanoma SK-MEL-2
NCI-H460 = test: cells
NCI/ADR-RES = test: cells
UO-31 = test: cells
HS 578T = test: cells
HCT-15 = test: cells
human PC-3 cells = test: Sulforhodamine B (SRB) assay, cytotoxicity against PC-3 cells; conditions: SRB assay, PC-3 cells
How it was run: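 PC-3 cells in 5% FBS were fixed with 10% TCA after 24 h as T0, then treated with compound for 48 h, fixed, stained with 0.4% SRB in 1% acetic acid and solubilized in 10 mmol/L Trizma base. Absorbance was read at 515 nm. GI% = 100−[(Tx−T0)/(C−T0)]×100, and IC50 is the concentration halving total protein.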

MDA-MB-468 = test: cells
T-47D = test: cells
MDA-MB-231/ATCC = test: cells
RXF 393 = test: cells
MALME-3M = test: cells
MOLT-4 = test: cells
OVCAR-5 = test: cells
SK-OV-3 = test: cells
SNB-75 = test: cells
HT29 = test: cells
OVCAR-4 = test: cells
SN12C = test: cells
OVCAR-3 = test: cells
MCF7 = test: cells
KM12 = test: cells
OVCAR-8 = test: cells
HCT-116 = test: cells
HOP-62 = test: cells
[1] = Homo sapiens, Breast Cancer MDA-MB-231/ATCC
[2] = Homo sapiens, Melanoma MALME-3M
[3] = Homo sapiens, Colon Cancer HCT-116
[4] = Homo sapiens, Non-Small Cell Lung Cancer HOP-62

With `O=C1c2cc(Cl)ccc2-c2c(N3CCNCC3)nc3ccccc3c21` [SJ-10, 9-Chloro-6-(piperazin-1-yl)-11H-indeno[1,2-c]quinolin-11-one] the GI50 (SK-MEL-28; Homo sapiens, Melanoma SK-MEL-28) was > 100 µM, the CC50 (SK-MEL-28; Homo sapiens, Melanoma SK-MEL-28, read-out: LC50 (the source's name)) was > 100 µM and the TGI (SK-MEL-28; Melanoma SK-MEL-28) was >100 µM. For the same compound, the growth percentage (SK-MEL-28; SK-MEL-28 (Melanoma), 10 μM, 48 hours) was -91.38%, the GI50 (SK-MEL-2; Homo sapiens) was 7.36 µM and the CC50 (SK-MEL-2; Homo sapiens, read-out: LC50 (the source's name)) was > 100 µM. For the same compound, the TGI (SK-MEL-2) was >100 µM, the GI50 (NCI-H460; Homo sapiens, Non-Small Cell Lung Cancer NCI-460) was 4.15 µM and the CC50 (NCI-H460; Homo sapiens, Non-Small Cell Lung Cancer NCI-460, read-out: LC50 (the source's name)) was > 100 µM. The growth percentage (NCI-H460; NCI-H460 (Non-Small Cell Lung Cancer), 10 μM, 48 hours) was -66.36%, the TGI (NCI-H460; Non-Small Cell Lung Cancer NCI-460) was >100 µM and the GI50 (NCI/ADR-RES; Homo sapiens, Ovarian Cancer NCI/ADR-RES) was 22.5 µM. For the same compound, the CC50 (NCI/ADR-RES; Homo sapiens, Ovarian Cancer NCI/ADR-RES, read-out: LC50 (the source's name)) was > 100 µM, the growth percentage (NCI/ADR-RES; NCI/ADR-RES (Ovarian Cancer), 10 μM, 48 hours) was -4.00% and the TGI (NCI/ADR-RES; Ovarian Cancer NCI/ADR-RES) was >100 µM. The GI50 (UO-31; Homo sapiens, Renal Cancer UO-31) was 2.83 µM, the CC50 (UO-31; Homo sapiens, Renal Cancer UO-31, read-out: LC50 (the source's name)) was > 100 µM and the TGI (UO-31; Renal Cancer UO-31) was >100 µM. For the same compound, the growth percentage (UO-31; UO-31 (Renal Cancer), 10 μM, 48 hours) was -40.61%, the TGI (HS 578T; Breast Cancer HS 578T) was >100 µM and the growth percentage (HS 578T; HS 578T (Breast Cancer), 10 μM, 48 hours) was 60.88%. For the same compound, the GI50 (HS 578T; Homo sapiens, Breast Cancer HS 578T) was 4.77 µM, the CC50 (HS 578T; Homo sapiens, Breast Cancer HS 578T, read-out: LC50 (the source's name)) was > 100 µM and the TGI (HCT-15; Colon Cancer HCT-15) was >100 µM. For the same compound, the growth percentage (HCT-15; HCT-15 (Colon Cancer), 10 μM, 48 hours) was -78.92%, the GI50 (HCT-15; Homo sapiens, Colon Cancer HCT-15) was 4.34 µM and the CC50 (HCT-15; Homo sapiens, Colon Cancer HCT-15, read-out: LC50 (the source's name)) was > 100 µM. The “Toxicity (%)” value (human PC-3 cells) was 47.2%, the “GI % (10 μM)” value (human PC-3 cells; 10 μM) was 100% and the TGI (MDA-MB-468; Breast Cancer MDA-MB-468) was >100 µM. For the same compound, the GI50 (MDA-MB-468; Homo sapiens, Breast Cancer MDA-MB-468) was 4.42 µM, the CC50 (MDA-MB-468; Homo sapiens, Breast Cancer MDA-MB-468, read-out: LC50 (the source's name)) was > 100 µM and the growth percentage (MDA-MB-468; MDA-MB-468 (Breast Cancer), 10 μM, 48 hours) was -35.66%. For the same compound, the TGI (T-47D; Breast Cancer T-47D) was >100 µM, the GI50 (T-47D; Homo sapiens, T47D, Breast Cancer T-47D) was 8.44 µM and the CC50 (T-47D; Homo sapiens, T47D, Breast Cancer T-47D, read-out: LC50 (the source's name)) was > 100 µM. The growth percentage (T-47D; T-47D (Breast Cancer), 10 μM, 48 hours) was -31.54%, the TGI (MDA-MB-231/ATCC; Breast Cancer MDA-MB-231/ATCC) was >100 µM and the GI50 (MDA-MB-231/ATCC; [1]) was 7.23 µM. For the same compound, the LC50 (concentration giving 50% net cell kill) (MDA-MB-231/ATCC; [1]) was > 100 µM, the growth percentage (MDA-MB-231/ATCC; MDA-MB-231/ATCC (Breast Cancer), 10 μM, 48 hours) was -10.45% and the GI50 (RXF 393; Homo sapiens, Renal Cancer RXF 393) was 4.55 µM. The CC50 (RXF 393; Homo sapiens, Renal Cancer RXF 393, read-out: LC50 (the source's name)) was > 100 µM, the growth percentage (RXF 393; RXF 393 (Renal Cancer), 10 μM, 48 hours) was 20.51% and the TGI (RXF 393; Renal Cancer RXF 393) was >100 µM. For the same compound, the GI50 (MALME-3M; [2]) was 8.87 µM, the LC50 (concentration killing 50% of cells) (MALME-3M; [2]) was > 100 µM and the growth percentage (MALME-3M; MALME-3M (Melanoma), 10 μM, 48 hours) was -32.28%. For the same compound, the TGI (MALME-3M; Melanoma MALME-3M) was >100 µM, the GI50 (MOLT-4; Homo sapiens, Leukemia MOLT-4) was 4.41 µM and the LC50 (concentration killing 50% of cells) (MOLT-4; Homo sapiens, Leukemia MOLT-4) was > 100 µM. For the same compound, the TGI (MOLT-4; Leukemia MOLT-4) was >100 µM, the growth percentage (MOLT-4; MOLT-4 (Leukemia), 10 μM, 48 hours) was -43.22% and the GI50 (OVCAR-5; Homo sapiens, Ovarian Cancer OVCAR-5) was 34.5 µM. The CC50 (OVCAR-5; Homo sapiens, Ovarian Cancer OVCAR-5, read-out: LC50 (the source's name)) was > 100 µM, the growth percentage (OVCAR-5; OVCAR-5 (Ovarian Cancer), 10 μM, 48 hours) was 39.14% and the TGI (OVCAR-5; Ovarian Cancer OVCAR-5) was >100 µM. For the same compound, the GI50 (SK-OV-3; Homo sapiens, Ovarian Cancer SK-OV-3) was 4.35 µM, the CC50 (SK-OV-3; Homo sapiens, Ovarian Cancer SK-OV-3, read-out: LC50 (the source's name)) was > 100 µM and the TGI (SK-OV-3; Ovarian Cancer SK-OV-3) was >100 µM. For the same compound, the growth percentage (SK-OV-3; SK-OV-3 (Ovarian Cancer), 10 μM, 48 hours) was 57.81%, the TGI (SNB-75; CNS Cancer SNB-75) was >100 µM and the GI50 (SNB-75; Homo sapiens, CNS Cancer SNB-75) was 4.53 µM. For the same compound, the CC50 (SNB-75; Homo sapiens, CNS Cancer SNB-75, read-out: LC50 (the source's name)) was > 100 µM, the growth percentage (SNB-75; SNB-75 (CNS Cancer), 10 μM, 48 hours) was 22.34% and the TGI (HT29; Colon Cancer HT29) was >100 µM. The growth percentage (HT29; HT29 (Colon Cancer), 10 μM, 48 hours) was -80.89%, the GI50 (HT29; Homo sapiens, HT-29, Colon Cancer HT29) was 7.84 µM and the CC50 (HT29; Homo sapiens, HT-29, Colon Cancer HT29, read-out: LC50 (the source's name)) was > 100 µM. The GI50 (OVCAR-4; Homo sapiens, Ovarian Cancer OVCAR-4) was 6.39 µM, the CC50 (OVCAR-4; Homo sapiens, Ovarian Cancer OVCAR-4, read-out: LC50 (the source's name)) was > 100 µM and the growth percentage (OVCAR-4; OVCAR-4 (Ovarian Cancer), 10 μM, 48 hours) was 35.59%. The TGI (OVCAR-4; Ovarian Cancer OVCAR-4) was >100 µM, the GI50 (SN12C; Homo sapiens, Renal Cancer SN12C) was 5.42 µM and the CC50 (SN12C; Homo sapiens, Renal Cancer SN12C, read-out: LC50 (the source's name)) was > 100 µM. The TGI (SN12C; Renal Cancer SN12C) was >100 µM, the growth percentage (SN12C; SN12C (Renal Cancer), 10 μM, 48 hours) was 15.89% and the GI50 (OVCAR-3; Homo sapiens, Ovarian Cancer OVCAR-3) was 12.8 µM. The CC50 (OVCAR-3; Homo sapiens, Ovarian Cancer OVCAR-3, read-out: LC50 (the source's name)) was > 100 µM, the growth percentage (OVCAR-3; OVCAR-3 (Ovarian Cancer), 10 μM, 48 hours) was 22.86% and the TGI (OVCAR-3; Ovarian Cancer OVCAR-3) was >100 µM. For the same compound, the TGI (MCF7; Breast Cancer MCF7) was >100 µM, the GI50 (MCF7; Homo sapiens, Breast Cancer MCF7) was 5.42 µM and the CC50 (MCF7; Homo sapiens, Breast Cancer MCF7, read-out: LC50 (the source's name)) was > 100 µM. The growth percentage (MCF7; MCF7 (Breast Cancer), 10 μM, 48 hours) was -100.00%, the TGI (KM12; Colon Cancer KM12) was >100 µM and the GI50 (KM12; Homo sapiens, Colon Cancer KM12) was 2.5 µM. For the same compound, the CC50 (KM12; Homo sapiens, Colon Cancer KM12, read-out: LC50 (the source's name)) was > 100 µM, the growth percentage (KM12; KM12 (Colon Cancer), 10 μM, 48 hours) was -47.09% and the GI50 (OVCAR-8; Homo sapiens, Ovarian Cancer OVCAR-8) was 8.66 µM. For the same compound, the CC50 (OVCAR-8; Homo sapiens, Ovarian Cancer OVCAR-8, read-out: LC50 (the source's name)) was > 100 µM, the growth percentage (OVCAR-8; OVCAR-8 (Ovarian Cancer), 10 μM, 48 hours) was -46.09% and the TGI (OVCAR-8; Ovarian Cancer OVCAR-8) was >100 µM. For the same compound, the TGI (HCT-116; Colon Cancer HCT-116) was >100 µM, the growth percentage (HCT-116; HCT-116 (Colon Cancer), 10 μM, 48 hours) was -83.19% and the GI50 (HCT-116; [3]) was 5.42 µM. For the same compound, the LC50 (50% lethal concentration) (HCT-116; [3]) was > 100 µM, the growth percentage (HOP-62; HOP-62 (Non-Small Cell Lung Cancer), 10 μM, 48 hours) was -61.80% and the GI50 (HOP-62; [4]) was 12.3 µM. For the same compound, the LC50 (50% lethal concentration) (HOP-62; [4]) was > 100 µM and the TGI (HOP-62; Non-Small Cell Lung Cancer HOP-62) was >100 µM.
